# Patent US8361984B2, “Small interfering RNAs and methods for prevention, inhibition and/or treatment of malignant progression of breast cancer” (Taipei Medical University, priority 2011, dated 2013)
# Where two headings read alike, the source gives them in different places.
# How the values were obtained:
# [1] = target: T1, endogenous α9-nAChR receptor in human breast cancer MDA-MB-231 cells (Homo sapiens, UniProt Q9UGM1); experiment: [^3H]-nicotine equilibrium binding in MDA-MB-231 cells
# T1 construct: endogenous α9-nAChR receptor in human breast cancer MDA-MB-231 cells; endogenous in cells; host or cells: MDA-MB-231 (parental, Sc and Si α9 clones)
# Description: L-(−)-[N-methyl-^3H]-nicotine (71-75 Ci/mmol) was purchased from Dupont/NEN Research Products (Boston, Mass.), and free base nicotine (99% pure) was purchased from the Eastman Kodak Co. (Rochester, N.Y.). To study the uptake of [^3H]-nicotine in MDA-MB-231 cell monolayers (2×10^6 cells per well), cells were rinsed three times with a buffer containing 140 mM NaCl, 5.4 mM KCl, 1.8 mM CaCl2, 0.8 mM MgSO4, 5 mM glucose, and 25 mM Hepes (pH 7.4). Saturation binding studies were conducted for 2 hours at 37° C. in six-well plates, and used at least eight different concentrations of [^3H]-nicotine ranging from 1 to 15 nM. Time-dependent association kinetic studies in MDA-MB-231, Si α9, Sc cells were conducted using a single concentration of [^3H]-nicotine (7 nM) for treatments of 5, 10, 15, 30, 60 and 90 minutes. For determination of nonspecific binding, 10 μM unlabeled nicotine was pre-added to medium, after which cells were washed three times with ice-cold buffer and then exposed to [^3H]-nicotine. [^3H]-nicotine uptake was stopped by aspiration of the uptake medium and washing the wells three times with ice-cold buffer. The cells were lysed in 1 mL of 0.5% Triton X-100, and aliquots of the cell lysates were transferred to scintillation vials to determine the incorporated radioactivity by scintillation counting. The assay was repeated four times with duplicate samples.
# [2] = tested on: MDA-MB-231 cells; experiment: Soft agar growth assay of MDA-MB-231 cells; assay type: cell-based, human; conditions: parental MDA-MB-231 cells; nicotine 10 μM or NNK 1 μM
# Source text: (§1) The experiment was repeated four times with duplicate samples.
# The assay was repeated four times with duplicate samples.
# [3] = tested on: MDA-MB-231 cells; experiment: MTT cell proliferation assay in MDA-MB-231 cells (parental, Sc, Si α5, Si α9); assay type: cell-based, human
# Source text: A) Detection of nAChR subunits by reverse transcription-polymerase chain reaction (RT-PCR) in normal and cancerous human breast cell lines. MCF-7, MDA-MB-231, AU-565, MDA-MB-453, and BT-483 are transformed human breast cancer cells; MCF-10A and HBL-100 are considered normal human breast cells. The expression profiles of nAChR subunits in human SAEC (small airway epithelial), NHBE (normal human bronchial epithelial), and H157 (lung cancer) cells were also examined as described previously (West K A, Brognard J, Clark A S, et al. J Clin Invest 2003; 111(1):81-90). B) Relative mRNA expression of different nAChR subunits in normal and tumor human breast tissues isolated from 50 breast cancer patients. The cDNA was used for RT-PCR analysis and the experiment was repeated twice. Percent of occurrence is shown. C) Expression of the α5 and α9 nAChR subunits in stable MDA-MB-231 cell lines that express α9-nAChR (Si α9), α5-nAChR (Si α5), or scrambled (Sc) short interfering RNAs (siRNAs). […] Levels of α5 and α9 mRNAs were determined by RT-PCR, and levels of the α5 and α9 proteins by western blotting (WB). In each case, glyceraldehyde 3-phosphate dehydrogenase (GADPH) expression served as a control. D) Cell proliferation in Si α5, Sc, and parental MDA-MB-231 cells treated with dimethylsulfoxide DMSO vs nicotine, and in cells treated with DMSO vs the nicotine metabolite, 4-(methylnitrosamino)-1-(3-pyridyl)-1-butanone (NNK). Parental MDA-MB-231 cells (231) and 231 cells stably transformed the Si α5-, Sc-, or Si α9-siRNAs were treated with either nicotine (10 μM), NNK (1 μM), or vehicle alone in the absence of continued G418 selection afterwards. […] Cell proliferation was measured by the 3-(4,5-dimethylthiazol-2-yl)-2,5-diphenyltetrazolium (MTT) assay, in which a greater number of cells was reflected by an increased OD540 nm at the indicated time points. The experiment was repeated four times with duplicate samples. Data points represent the mean; error bars indicate 95% confidence intervals. The data were analyzed by nonparametric two-sided tests (Kruskal-Wallis and Mann-Whitney tests). […] E) Confocal microscopy of α9-nAChR expression in human breast cancer (MCF-7) cells. Immunofluorescence with a fluorescein isothiocyate-conjugated secondary antibody was used to detect the α9-nAChR, whereas a rhodamine-conjugated fluorescent antibody was used for caveolin-1 labeling. Localization of α9-nAChR (left, green), the membrane protein caveolin-1 (middle, red), and the merged image (right, yellow) are shown. Scale bar=25 μm. F) Dose-dependent binding of [^3H]-nicotine to the endogenous α9-nAChR receptor in human breast cancer MDA-MB-231 cells (left panel) and time-dependent [^3H]-nicotine binding in parental MDA-MB-231 cells (231), or in 231 cells stably transformed with α9-nAChR siRNA (Si α9) or scrambled control (Sc) siRNA (right panel). The experiment was repeated four times with duplicate samples. Data points represent the mean; error bars indicate the 95% confidence intervals. […] G) Analysis of α9-nicotinic acetylcholine receptor (α9-nAChR) expression in human breast carcinoma tissues. Determination of α9-nAChR mRNA levels using reverse transcription-polymerase chain reaction (RT-PCR). […] PCR was performed for 30 cycles.
# (§2) Cell growth, proliferation, and viability were determined using the 3-(4,5-dimethylthiazol-2-yl)-2,5-diphenyltetrazolium (MTT) assay (Chou Y H, Ho Y S, Wu C C, et al. Food Chem Toxicol 2007; 45(8):1356-67.) Stock solutions of 10 mM nicotine and NNK (Chemsyn, Lenexa, Kans.) were prepared in dimethyl sulfoxide (DMSO). This assay was repeated four times with duplicate samples.
# [4] = tested on: MCF-10A (DOX) cells; experiment: Long-term transformation of MCF-10A (DOX) cells, soft agar colony formation; assay type: cell-based, human; conditions: soft agar 21 days
# Source text: Anchorage-independent growth of α9-nAChR overexpressing (MCF-10A-Nic (DOX) and MCF-10A-NNK (DOX)) and siRNA-expressing MDA MB-231 Si α5, Si α9, and Sc cells were examined in soft agar assays. The base layer consisted of 0.9% low-melting point SeaPlaque agarose (Sigma, St. Louis, Mo.) in complete MCF-10A culture medium. Soft agar was composed of 0.4% SeaPlaque agarose in complete DMEM and F12 culture medium was mixed with 1×10^4 cells and plated on top of the base layer in 60-mm-diameter culture dishes. […] Soft agar cultures were maintained at 37° C. for an additional 21 days and observed for the appearance of colonies with a Leica DMI 4000B Microscope Imaging System (Leica Microsystems, Wetzlar, Germany). The assay was repeated four times with duplicate samples.
# [5] = tested on: MCF-10A (DOX) cells; experiment: MTT cell proliferation assay in MCF-10A (DOX) cells; assay type: cell-based, human; conditions: nicotine 10 μM, NNK 1 μM; DOX+ vs DOX− cells
# Description: Data points represent the mean; error bars indicate 95% confidence intervals. […] The experiment was repeated four times with duplicate samples. […] After transplantation, mice bearing tumors were treated with DOX (0.5 mg/mL) via drinking water for 14 days. After that, all mice bearing tumors (200 mm^3) were divided into either α9-nAChR mRNA expressing (DOX−) or non-expressing (DOX+) groups in the presence or absence of nicotine (10 mg/mL) in their drinking water (n=5, per group). […] Error bars represent 95% confidence intervals.
# as §2
# [6] = tested on: MCF-10A-Nic (DOX) xenografts; conditions: after 7 weeks; for tumor volume: with nicotine 10 mg/mL drinking water
# Description: BALB/c-nu/nu mice (female, 4 weeks old, n=5 per group) purchased from National Science Council Animal Center, Taipei, were injected subcutaneously with MCF-10A-Nic (DOX) and vector control (5×10^6) cells. After transplantation, mice bearing tumors were treated with DOX (0.5 mg/mL) via drinking water for 14 days. After that, all mice bearing tumors (200 mm^3) were divided into either α9-nAChR mRNA expressing (DOX−) or non-induced (DOX+) groups, the latter of which could express the α9-nAChR mRNA at basal level. The mice were simultaneously treated with or without nicotine (10 mg/mL) in their drinking water for an additional 6 weeks. The xenografts were weighed and either snap-frozen in dry ice and stored at −80° C. for RNA and protein analysis or formalin-fixed and paraffin-embedded for immunohistochemical observation.
# Examination was conducted as to whether induction of α9-nAChR in the presence or absence of nicotine stimulation in vivo would effectively promote tumor growth (FIG. 6). BALB/c-nu/nu mice (female, 4 weeks old) were injected subcutaneously with transformed MCF-10A-Nic (DOX) cells (5×10^6). After that, all mice bearing tumors (200 mm^3) were divided into either α9-nAChR mRNA expressing (DOX−) or non-expressing (DOX+) groups in the presence or absence of nicotine (10 mg/mL) in their drinking water (n=5, per group).
# [7] = tested on: MDA-MB-231 tumor xenografts; experiment: MDA-MB-231 α9-nAChR siRNA-expressing xenografts in NOD-SCID mice; assay type: in vivo, mouse
# Source text: as §1
# [8] = Sc cells, day 11, nicotine 10 μM, NNK 1 μM
# [9] = Si α5 cells, day 11, nicotine 10 μM, NNK 1 μM
# [10] = nicotine-treated (10 mg/mL drinking water) mice with parental MDA-MB-231 tumors
# T1 sequence (Q9UGM1 26-479 limits assumed): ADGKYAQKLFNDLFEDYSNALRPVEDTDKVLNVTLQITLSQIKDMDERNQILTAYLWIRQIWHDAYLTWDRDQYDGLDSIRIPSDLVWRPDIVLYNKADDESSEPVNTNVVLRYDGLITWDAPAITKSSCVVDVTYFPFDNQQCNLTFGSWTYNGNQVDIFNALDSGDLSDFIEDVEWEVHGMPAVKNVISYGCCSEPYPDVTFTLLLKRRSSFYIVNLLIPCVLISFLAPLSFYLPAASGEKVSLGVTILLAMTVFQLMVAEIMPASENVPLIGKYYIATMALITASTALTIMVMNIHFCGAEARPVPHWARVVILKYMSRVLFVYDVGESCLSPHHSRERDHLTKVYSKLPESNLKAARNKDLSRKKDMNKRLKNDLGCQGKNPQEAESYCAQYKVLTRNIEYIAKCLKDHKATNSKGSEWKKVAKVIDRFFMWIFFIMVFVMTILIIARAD
smiles,measurement,setting,value
"CN1CCCC1c1cccnc1 [[^3H]-nicotine, L-(−)-[N-methyl-^3H]-nicotine]",time at which maximum binding activity is attained,"[1]; MDA-MB-231 cells, [^3H]-nicotine 7 nM",60 min
same,Kd,"[1]; MDA-MB-231 cells, saturation binding 2 hours at 37° C., read-out: dissociation constant (Kd) of [^3H]-nicotine binding",3 nM
same,[^3H]-nicotine bound by parental cells,[1]; parental MDA-MB-231 cells,489.7 DPM
"CN(CCCC(=O)c1cccnc1)N=O [NNK, 4-(methylnitrosamino)-1-(3-pyridyl)-1-butanone]",no. of colonies in parental cells,[2],406 colonies
same,difference in mean OD540 nm vs control (DMSO),[3]; [8],1.00
same,mean OD540 nm,[3]; [8],1.77
same,difference in mean OD540 nm vs control (DMSO),[3]; [9],0.99
same,mean OD540 nm,[3]; [9],1.78
same,"colonies formed, DOX− compared with DOX+ cells",[4]; NNK 1 μM for 60 days,More colonies
same,induction of cell proliferation,[5],induced cell proliferation was observed only in the MCF-10A (DOX+) cell line
CN1CCCC1c1cccnc1 (stereo not shown) [nicotine],"difference in tumor volume, with vs without nicotine",[6]; +DOX,235.4 mm^3
same,tumor volume,[6]; +DOX,501.6 mm^3
same,"difference in tumor volume, with vs without nicotine",[6]; −DOX,277.4 mm^3
same,tumor volume,[6]; −DOX,898.6 mm^3
same,tumor weight in nicotine-fed mice,[7]; mice injected with MDA-MB-231 (231) or Sc cells (FIG. 3D),heavier
same,tumor volume at 6 weeks treatment,[7]; [10],2993.2 mm^3
same,tumor weight at 6 weeks,[7]; [10],4.38 g
same,no. of colonies in parental cells,[2],341 colonies
same,difference in mean OD540 nm vs control (DMSO),[3],0.58
same,mean OD540 nm,[3],1.35
same,colonies formed in soft agar,"[4]; MCF-10A (DOX−) cells, nicotine 10 μM for 60 days",six
same,induction of cell proliferation,[5],induced cell proliferation was observed only in the MCF-10A (DOX+) cell line
